In brackets after ≈: the same amount, converted by molar mass. Several values for one entry are separate records, joined by “and”; a condition that tells them apart may be missing. Equal values may be shown once. Read-outs that look alike come from different tables or passages of the source.
Legend:
[1] = tested on: A. baumannii biofilm; assay: MBEC, MBEC Inoculation Tray by Innovotech (to 10^2 CFU/peg in 24 hours); format: cell-based, Acinetobacter baumannii; conditions: Table 4
Description: To determine the MBEC of each polyamine compound, the MBEC Inoculation Tray by Innovotech, formerly known as the Calgary biofilm device, was used. Within this device, biofilms grow on the surface of polystyrene pegs, 96 of which are attached to a lid. These pegs are inserted into a flat bottom 96-well plate. In this instance, the MBEC of a molecule was defined as the concentration of compound (in μg/mL) required to reduce 10^5 or 10^6 CFU/peg (biofilm levels varied by isolate) to 10^2 CFU/peg in a 24-hour period.
Following the manufacturer's guidelines, biofilms were grown on the surface of each peg by first making a 0.5 McFarland of each isolate. The 0.5 McFarland was diluted 1:100 in CAMHB. Into each well of a flat bottom 96-well plate, 150 μL of broth were pipetted. The plate was shaken at 100 rpm for 24 hours (P. aeruginosa and A. baumannii) or 48 hours (MRSA). The pegs were then placed into a separate flat bottom 96-well plate for 10 seconds with 200 μL of phosphate buffered saline (PBS) in each well to remove nonadherent cells. The lid was then placed into a 96-well plate that contained varying concentrations of antimicrobial with 200 μL per well. The plate was incubated for 24 hours at 37° C. after which time 100 μL of broth were plated on TSA. TSA plates were incubated 24 hours at 37° C. and the number of CFU counted to calculate the CFU/peg. In this instance, the MBEC was defined as the concentration of antimicrobial required to reduce 10^5 or 10^6 CFU/peg to 10^2 CFU/peg in a 24 hour period.
To determine the MBEC, the MBEC Inoculation Tray by Innovotech, formerly known as the Calgary biofilm device, is used. Within this device, biofilms grow on the surface of polystyrene pegs, 96 of which are attached to a lid. These pegs are inserted into a flat bottom 96-well plate. In this instance, the MBEC of a molecule is defined as the concentration of compound required to reduce approximately 10^6 CFU/peg to approximately 10^2 CFU/peg in a 24-hour period.
Following the manufacturer's guidelines, biofilms are grown on the surface of each peg by first making a 0.5 McFarland of A. baumannii. The 0.5 McFarland is diluted 1:100 in CAMHB broth. Into each well of a flat bottom 96-well plate, 150 μL of broth is pipetted. The plate is shaken at 100 rpm for 24 hours. The pegs are placed into a separate flat bottom 96-well plate for 10 seconds with 200 μL of phosphate buffered saline (PBS) in each well to remove nonadherent cells. The lid is placed into a 96-well plate that contains varying concentrations of antimicrobial with 200 μL of broth per well. The plate is incubated for 24 hours at 37° C. after which time 100 μL of broth is plated on TSA. TSA plates is incubated 24 hours at 37° C. and the number of CFU counted to calculate the CFU/peg.
MBEC data were collected using the MBEC Inoculation Tray by Innovotech. The MBEC was defined in these preliminary results as the concentration of antimicrobial required to reduce 10^5 or 10^6 CFU/peg to 10^2 CFU/peg in a 24-hour period.

[2] = tested on: biofilm of MRSA; assay: Combination treatment: dispersal of MRSA biofilm; format: cell-based, methicillin-resistant Staphylococcus aureus; conditions: CZ-7 at […] mixed with chlorhexidine gluconate at […]; biofilm of 10^11 cells; within one hour
[3] = tested on: MRSA biofilm; assay: EBEC, high number biofilms on PEEK membranes (10^9 to 10^2 CFU/PEEK membrane in 24 hours); format: cell-based, methicillin-resistant Staphylococcus aureus; conditions: for EBEC, MRSA: Table 4
Protocol: (§1) In addition to determining the MIC and the MBEC of polyamine compounds against planktonic bacteria and low number biofilms, our group wanted to determine the efficacy of polyamine compounds against high number biofilms. To do so, biofilms were grown on the surface of polyetheretherketone (PEEK) membranes using a membrane biofilm reactor. This reactor is similar to the CDC biofilm reactor, but rather than growing biofilms on coupon surfaces, the reactor was modified to hold PEEK membranes. In short, to grow biofilms within this system, 500 mL of brain heart infusion (BHI) broth were inoculated with 1 mL of a 0.5 McFarland. The reactor was placed on a hot plate set at 34° C. and the bacteria were grown under batch conditions for 24 hours. Following this protocol, biofilms typically grow to 10^9 CFU/PEEK membrane. […] A solution of 10% BHI was then flowed through the reactor at a rate of 6.94 mL/min for an additional 24 hours. PEEK membranes were then removed and placed into 2 mL of CAMHB that contained a desired concentration of polyamine compound or antibiotic. The EBEC was defined as the concentration of antimicrobial required to reduce a biofilm from approximately 10^9 CFU/PEEK membrane to approximately 10^2 CFU/PEEK membrane in a 24-hour period.
(§2) In addition to determining the MIC and the MBEC of compounds against planktonic bacteria and low number biofilms, the efficacy of the compounds of the invention against high number biofilms is determined. To do so, biofilms are grown on the surface of PEEK membranes using a membrane biofilm reactor (Williams, D. L., Haymond, B. S. & Bloebaum, R. D. Use of delrin plastic in a modified CDC biofilm reactor. Res J Microbiol 6, 425-429 (2011); Williams, D. L., Woodbury, K. L., Haymond, B. S., Parker, A. E. & Bloebaum, R. D. A modified CDC biofilm reactor to produce mature biofilms on the surface of PEEK membranes for an in vivo animal model application. Curr Microbiol 62, 1657-1663 (2011); Williams, D. L. et al., In Vivo Efficacy of a Silicone—Cationic Steroid Antimicrobial Coating to Prevent Implant-Related Infection. Biomaterials 33, 8641-8656 (2012); Williams, D. L. et al., Experimental model of biofilm implant-related osteomyelitis to test combination biomaterials using biofilms as initial inocula. J Biomed Mat Res A 100, 1888-1900 (2012)). This reactor is similar to the CDC biofilm reactor, but rather than growing biofilms on coupon surfaces, the reactor was modified to hold PEEK membranes. In short, to grow biofilms within this system, 500 mL of brain heart infusion (BHI) broth is inoculated with 1 mL of a 0.5 McFarland. The reactor is placed on a hot plate set at 34° C. and the bacteria grown under batch conditions for 24 hours. A solution of 10% BHI will then be flowed through the reactor at a rate of 6.94 mL/min for an additional 24 hours. Following this protocol, biofilms typically grow to 10^9 CFU/PEEK membrane. PEEK membranes is removed and placed into 2 mL of CAMHB that contain a desired concentration of the test compound. The EBEC is defined as the concentration of antimicrobial required to reduce a biofilm from approximately 10^9 CFU/PEEK membrane to approximately 10^2 CFU/PEEK membrane in a 24-hour period.
EBEC data were collected to determine the efficacy of CZ-52, CZ-58 and traditional antibiotics against high number biofilms containing approximately 10^9 CFU grown on the surface of a polyetheretherketone (PEEK) membrane.

[4] = tested on: MRSA biofilm; assay: MBEC, MBEC Inoculation Tray by Innovotech (to 10^2 CFU/peg in 24 hours); format: cell-based, methicillin-resistant Staphylococcus aureus; conditions: Table 4
[5] = tested on: A. baumannii biofilm; assay: EBEC, high number biofilms on PEEK membranes (10^9 to 10^2 CFU/PEEK membrane in 24 hours); format: cell-based, Acinetobacter baumannii; conditions: Table 4
Protocol: as §1, §2
EBEC data were collected to determine the efficacy of CZ-52, CZ-58 and traditional antibiotics against high number biofilms containing approximately 10^9 CFU grown on the surface of a polyetheretherketone (PEEK) membrane. […] In contrast, at 250 μg/mL CZ-52 was able to reduce MRSA biofilms by greater than 7 log10 units in a 24-hour period. Although the MIC of CZ-58 was lower against MRSA compared to A. baumannii, CZ-58 had greater activity against biofilms of A. baumannii than against MRSA biofilms in the EBEC assay. […] Although the MIC of CZ-58 was “high” compared to MICs of traditional antibiotics, the efficacy against biofilms was promising.

[6] = tested on: MRSA biofilm; assay: EBEC on PEEK membranes, 100% eradication (Example 2); format: cell-based, methicillin-resistant Staphylococcus aureus; conditions: PEEK membrane, eradicate all detectable amounts (100%)
Protocol: The fourth test that was performed was the effective biofilm eradication concentration (EBEC). To determine the EBEC, biofilms of MRSA and P. aeruginosa ATCC 27853 were grown on the surface of PEEK membranes using a previously established protocol. Briefly, 500 mL of brain heart infusion (BHI) broth were inoculated with 10^5 cells/mL of MRSA or P. aeruginosa. BHI broth was placed into a membrane biofilm reactor and placed on a hot plate set at 34° C. for 24 hours with a stir bar rotating at 130 rpm. Following the initial 24-hour growth period, a 10% BHI broth solution was flowed through the reactor at a rate of 6.944 mL/min for another 24 hours. After 48 hours of growth, each PEEK membrane had biofilm growth on it. In this experiment, there were ˜2×10^11 cells of MRSA per PEEK membrane and −2×10^10 cells of P. aeruginosa per PEEK membrane. The EBEC was defined as the concentration of the compound that was required to eradicate all detectable amounts (100%) of bacteria within the biofilms.

[7] = tested on: MRSA biofilm; assay: MBEC assay (Calgary Biofilm Device), 100% eradication (Example 2); format: cell-based, methicillin-resistant Staphylococcus aureus; conditions: eradicate 100% of detectable biofilm
Protocol: In addition to determining the MIC, the minimum biofilm eradication concentration (MBEC) of PBC-51 was also determined. The MBEC was determined using the MBEC assay, formerly known as the Calgary Biofilm Device, developed by Innovotech. In this instance, the MBEC was defined as the amount of antimicrobial required to eradicate 100% of detectable biofilm after being grown in the MBEC device. To grow the biofilms within this device, 150 μL of solution containing a concentration of 10^5 cells/mL were inoculated into each well of a 96-well plate. A lid containing 96 pegs was placed onto the plate and incubated for 24 hours at 37° C. while being shaken at 110 rpm. Biofilms developed on the surface of the polystyrene pegs within the 96-well plate. After 24 hours, each peg contained between 10^5 and 10^6 cells in well-established biofilms. The lid with pegs was transferred to a 96-well plate that contained 200 μL of varying concentrations of the compound and was incubated at 37° C. for an additional 24 hours. The plate was then sonicated, and the biofilms quantified using a 10-fold dilution series to determine the MBEC.

[8] = tested on: MRSA; assay: MIC in CAMHB, 96-well plate (10^5 to 10^2 CFU/mL in 24 hours); format: cell-based, methicillin-resistant Staphylococcus aureus; conditions: Table 4
Protocol: To determine the MIC of polyamine compounds, the protocol described herein was used.
In brief, a 0.5 McFarland of each bacterial isolate was made. A 0.5 McFarland is a measure of turbidity in a liquid sample that contains approximately 1×10̂^8 CFU/mL. The 0.5 McFarland standard was diluted in cation adjusted Mueller Hinton Broth (CAMHB), and […], of broth were added to a well of a 96-well plate. In addition, 50 μL of CAMHB that contained a desired concentration of antimicrobial were also added to the well for a final volume of 100 and a final concentration of approximately 5×10^4 CFU/well (which equated to approximately 5×10^5 CFU/mL). Each well contained a desired amount of polyamine compound in order to experimentally determine the MIC. Each 96-well plate was incubated at 37° C. for 24 hours. The contents of each well were plated on tryptic soy agar (TSA). TSA plates were incubated for 37° C. for 24 hours after which the number of CFU were counted and used to calculate the CFU/mL that remained after exposure to varying concentrations of compound. This procedure was repeated n=8 times for each concentration of antimicrobial. […]

NCCCNCCCNCc1ccccc1 [CZ-7, benzylnorspermidine]
MBEC, A. baumannii [1]: > 500 μg/mL and > 2,259 μM | dispersal of MRSA biofilm [2]: significant dispersal | EBEC, MRSA [3]: > 5,000 μg/mL and > 22,590 μM | MBEC, MRSA [4]: > 500 μg/mL and > 2,259 μM | EBEC, A. baumannii [5]: > 10,000 μg/mL and > 45,180 μM

CN[C@H](CC(C)C)C(=O)N[C@H]1C(=O)N[C@@H](CC(N)=O)C(=O)N[C@H]2C(=O)N[C@H]3C(=O)N[C@H](C(=O)N[C@H](C(=O)O)c4cc(O)cc(O)c4-c4cc3ccc4O)[C@H](O)c3ccc(c(Cl)c3)Oc3cc2cc(c3O[C@@H]2O[C@H](CO)[C@@H](O)[C@H](O)[C@H]2O[C@H]2C[C@](C)(N)[C@H](O)[C@H](C)O2)Oc2ccc(cc2Cl)[C@H]1O [Vancomycin, reference compound]
EBEC [6]: > 20,000 μg/mL and > 13,460 μM | MBEC [7]: > 500 μg/mL and > 336.50 μM | reduction of MRSA biofilms [3]: < 1 log10 unit | EBEC, MRSA [3]: > 25,000 μg/mL | reduction of MRSA biofilms ([3]; at 25,000 μg/mL): < 1 log10 unit | MBEC, MRSA [4]: > 500 μg/mL and > 345 μM | MIC, MRSA [8]: 10 µg/mL (≈ 6.9 µM)

From patent US20150274639A1, “METHODS OF USE FOR COMPOSITIONS COMPRISING A BIOCIDAL POLYAMINE” (Curza Global, LLC, priority 2013, published 2015)
